In experiment [1] the target is T1, active BTK enzyme (Upstate 14-552) (Homo sapiens, UniProt Q06187).
T1 construct: purchased Upstate 14-552
As to the kind of experiment: In Vitro BTK Kinase Assay: Btk-PolyGAT-LS Assay. Type of experiment: biochemical. To be noted: ATP 10 μM, polyGAT 100 nM, BTK 0.25 nM, 30 minutes, TRF readout. The method in brief: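 Active BTK (0.25 nM) phosphorylates fluorescein-polyGAT peptide (100 nM) with 10 µM ATP in Tris-HCl pH 7.5/MgCl2/DTT buffer, 30 min, EDTA stop. Phosphopeptide detected by TR-FRET with Tb-PY20 antibody after 45 min at room temperature; IC50 from four-parameter fit against DMSO and EDTA controls.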

The subject of experiment [2] is CD69 expression on CD19+ B cells in human whole blood. Kind of experiment: In Vitro whole blood CD69 Assay. The experiment is classed as cell-based. The conditions noted are these: B-cell. The method, then: In Vitro whole blood CD69 Assay
Human heparinized venous blood from health donors was aliquoted into 96-well plate and “spiked” with serial dilutions of formula I compounds in DMSO or with DMSO without drug. The final concentration of DMSO in all wells was 0.1%. The plate was incubated at 37° C. for 30 min. Drug-containing samples were stimulated with […] mouse anti-human IgD-dextran (1A62) or […] polyclonal rabbit F(ab′)2 anti-human IgD. Phosphate-buffered saline (PBS) was added to the negative control unstimulated sample and the plates were incubated overnight (18 to 22 hours) at 37° C. Cells were stained with fluorochrome-conjugated anti-CD19 and anti-CD69 antibodies. Lyse/fix solution was used to remove red blood cells by hypotonic lysis and to fix the remaining cells, which were then analyzed by flow cytometry. CD19+ B cells were gated and analyzed for CD69 expression. The percentage of B cells expressing CD69 was plotted versus the log 10 of the concentration of the drug and the best-fit curves (variable Hill slope) were generated to obtain the IC50 value.

Where [3] appears, read: human heparinized whole blood, anti-human IgD stimulation overnight, percentage of CD19+ B cells expressing CD69, flow cytometry, read-out: IC50.

Like-named read-outs stand apart in the source and are kept apart here.

IC50 data for 24 molecules are collected here from patent publication US20240327380A1, “BTK INHIBITORS” (BIOGEN MA INC., priority 2020, published 2024).

T1 sequence (Q06187 whole entry): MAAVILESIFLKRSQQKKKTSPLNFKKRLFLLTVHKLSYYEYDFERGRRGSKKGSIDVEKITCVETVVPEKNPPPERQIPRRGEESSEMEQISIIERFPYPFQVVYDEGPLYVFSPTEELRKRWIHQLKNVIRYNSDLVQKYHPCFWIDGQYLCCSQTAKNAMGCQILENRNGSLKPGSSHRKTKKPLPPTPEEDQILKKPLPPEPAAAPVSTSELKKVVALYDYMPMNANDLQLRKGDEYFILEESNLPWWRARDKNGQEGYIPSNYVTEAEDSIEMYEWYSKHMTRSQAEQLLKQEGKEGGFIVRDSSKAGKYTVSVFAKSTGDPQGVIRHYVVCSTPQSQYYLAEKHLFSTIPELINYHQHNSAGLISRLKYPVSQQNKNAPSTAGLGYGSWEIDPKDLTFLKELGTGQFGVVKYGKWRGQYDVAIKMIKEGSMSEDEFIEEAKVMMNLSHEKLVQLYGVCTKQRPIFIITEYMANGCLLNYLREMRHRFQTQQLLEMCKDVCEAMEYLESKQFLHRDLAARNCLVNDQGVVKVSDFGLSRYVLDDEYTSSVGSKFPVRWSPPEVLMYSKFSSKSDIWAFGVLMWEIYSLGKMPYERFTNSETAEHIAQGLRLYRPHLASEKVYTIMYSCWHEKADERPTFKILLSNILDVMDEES

What is called IC50 is the point on the concentration scale where inhibition reaches its midpoint. In the case of `C=CC(=O)N1CCCC12CCN(c1cnccc1-c1ccc(CNC(=O)c3cn(C(C)(C)C)nn3)c(C)c1)C2` (stereo not drawn) [Example 3, N-(4-(3-(1-acryloyl-1,7-diazaspiro[4.4]nonan-7-yl)pyridin-4-yl)-2-methylbenzyl)-1-(tert-butyl)-1H-1,2,3-triazole-4-carboxamide], the IC50 was 1 to 10 nM in experiment [1] and greater than 1000 nM in experiment [2] (setting [3]).

In the case of `C=CC(=O)N(C)C1CCCN(c2cncnc2-c2ccc(CNC(=O)c3cn(C(C)(C)C)nn3)c(C)c2)C1` (stereo not drawn) [Example 8, 1-(tert-butyl)-N-(2-methyl-4-(5-(3-(N-methylacrylamido)piperidin-1-yl)pyrimidin-4-yl)benzyl)-1H-1,2,3-triazole-4-carboxamide], the IC50 was no more than 1 nM in experiment [1] and less than 100 nM in experiment [2] (setting [3]).

Consider `C=CC(=O)N(C)C1CCCN(c2cnccc2-c2ccc(CNC(=O)c3noc(C(C)(C)C)n3)c(C)c2)C1` (stereo not drawn) [Example 12, 5-(tert-butyl)-N-(2-methyl-4-(3-(3-(N-methylacrylamido)piperidin-1-yl)pyridin-4-yl)benzyl)-1,2,4-oxadiazole-3-carboxamide], for which the results for the IC50 in experiment [1] and in experiment [2] (setting [3]) were no more than 1 nM and less than 100 nM, respectively.

In the case of `C=CC(=O)N(C)C1CCCN(c2cnccc2-c2ccc(CNC(=O)c3nc(C(C)(C)C)no3)c(C)c2)C1` (stereo not drawn) [Example 13, 3-(tert-butyl)-N-(2-methyl-4-(3-(3-(N-methylacrylamido)piperidin-1-yl)pyridin-4-yl)benzyl)-1,2,4-oxadiazole-5-carboxamide], the 50% inhibitory concentration (IC50) in experiment [1] is no more than 1 nM; in experiment [2] (setting [3]), less than 100 nM.

Turning to `C=CC(=O)N(C)C1CCCN(c2cnccc2-c2ccc(CNC(=O)c3cc(C(C)(C)C)on3)c(C)c2)C1` (stereo not drawn) [Example 14, 5-(tert-butyl)-N-(2-methyl-4-(3-(3-(N-methylacrylamido)piperidin-1-yl)pyridin-4-yl)benzyl)isoxazole-3-carboxamide], the IC50 was no more than 1 nM in experiment [1] and 100 to 1000 nM in experiment [2] (setting [3]).

`C=CC(=O)N(C)[C@H]1CCCN(c2cnccc2-c2ccc(CNC(=O)c3cn(C(C)(C)C)nn3)c(C)c2)C1` [Example 15, (S)-1-(tert-butyl)-N-(2-methyl-4-(3-(3-(N-methylacrylamido)piperidin-1-yl)pyridin-4-yl)benzyl)-1H-1,2,3-triazole-4-carboxamide]: the 50% inhibitory concentration (IC50) is greater than 10 nM in experiment [1] and greater than 1000 nM in experiment [2] (setting [3]).

As to `C=CC(=O)N(C)C1CCCN(c2cnccc2-c2ccc(CNC(=O)c3nc(C(C)(C)C)no3)c(C)c2F)C1` (stereo not drawn) [Example 18, 3-(tert-butyl)-N-(3-fluoro-2-methyl-4-(3-(3-(N-methylacrylamido)piperidin-1-yl)pyridin-4-yl)benzyl)-1,2,4-oxadiazole-5-carboxamide], the values for the concentration for half-maximal inhibition (IC50) in experiment [1] and in experiment [2] (setting [3]) were no more than 1 nM and 100 to 1000 nM, respectively.

As for `C=CC(=O)N(C)[C@@H]1CCCN(c2cnccc2-c2ccc(CNC(=O)c3cn(C(C)(C)C)nn3)c(C)c2)C1` [Example 22, (R)-1-(tert-butyl)-N-(2-methyl-4-(3-(3-(N-methylacrylamido)piperidin-1-yl)pyridin-4-yl)benzyl)-1H-1,2,3-triazole-4-carboxamide], the results for the IC50 in experiment [1] and in experiment [2] (setting [3]) were no more than 1 nM and less than 100 nM, respectively.

As to `C=CC(=O)N1CCCC(c2cnccc2-c2ccc(CNC(=O)c3cn(C(C)(C)C)nn3)c(C)c2)C1` (stereo not drawn) [Example 23, N-(4-(3-(1-acryloylpiperidin-3-yl)pyridin-4-yl)-2-methylbenzyl)-1-(tert-butyl)-1H-1,2,3-triazole-4-carboxamide], the IC50 in experiment [1] was 1 to 10 nM; in experiment [2] (setting [3]), greater than 1000 nM.

Consider `C=CC(=O)N1CCCC(c2cnccc2-c2ccc(CNC(=O)c3noc(C4(C)CC4)n3)c(C)c2)C1` (stereo not drawn) [Example 26, N-(4-(3-(1-acryloylpiperidin-3-yl)pyridin-4-yl)-2-methylbenzyl)-5-(1-methylcyclopropyl)-1,2,4-oxadiazole-3-carboxamide], for which the values for the half-maximal inhibitory concentration (IC50) in experiment [1] and in experiment [2] (setting [3]) were 1 to 10 nM and 100 to 1000 nM, respectively.

As for `C=CC(=O)N1CCCC(c2cnccc2-c2ccc(CNC(=O)c3nc(C4(C)CC4)no3)c(C)c2)C1` (stereo not drawn) [Example 29, N-(4-(3-(1-acryloylpiperidin-3-yl)pyridin-4-yl)-2-methylbenzyl)-3-(1-methylcyclopropyl)-1,2,4-oxadiazole-5-carboxamide], the IC50 in experiment [1] is 1 to 10 nM; in experiment [2] (setting [3]), greater than 1000 nM.

For the molecule `C=CC(=O)N1CCCC(c2cnccc2-c2ccc(CNC(=O)c3cc(C(C)(C)C)on3)c(C)c2)C1` (stereo not drawn) [Example 32, N-(4-(3-(1-acryloylpiperidin-3-yl)pyridin-4-yl)-2-methylbenzyl)-5-(tert-butyl)isoxazole-3-carboxamide], the results for the concentration for half-maximal inhibition (IC50) in experiment [1] and in experiment [2] (setting [3]) were 1 to 10 nM and 100 to 1000 nM, respectively.

As to `C=CC(=O)N1CCC(c2cnccc2-c2ccc(CNC(=O)c3noc(C(C)(C)C)n3)c(C)c2)CC1` [Example 35, N-(4-(3-(1-acryloylpiperidin-4-yl)pyridin-4-yl)-2-methylbenzyl)-5-(tert-butyl)-1,2,4-oxadiazole-3-carboxamide], the figures for the IC50 in experiment [1] and in experiment [2] (setting [3]) were 1 to 10 nM and 100 to 1000 nM, respectively.

As to `C=CC(=O)N1CCC(c2cnccc2-c2ccc(CNC(=O)c3nc(C(C)(C)C)no3)c(C)c2)CC1` [Example 36, N-(4-(3-(1-acryloylpiperidin-4-yl)pyridin-4-yl)-2-methylbenzyl)-3-(tert-butyl)-1,2,4-oxadiazole-5-carboxamide], the IC50 in experiment [1] was 1 to 10 nM; in experiment [2] (setting [3]), 100 to 1000 nM.

With `C=CC(=O)N(C)C1CCCN(c2cnccc2-c2ccc(CNC(=O)c3coc(C(C)(C)C)n3)c(C)c2)C1` (stereo not drawn) [Example 37, 2-(tert-butyl)-N-(2-methyl-4-(3-(3-(N-methylacrylamido)piperidin-1-yl)pyridin-4-yl)benzyl)oxazole-4-carboxamide], the values for the 50% inhibitory concentration (IC50) in experiment [1] and in experiment [2] (setting [3]) were no more than 1 nM and 100 to 1000 nM, respectively.

As to `C=CC(=O)N(C)C1CCCN(c2cnccc2-c2ccc(CNC(=O)c3nc(C(C)(C)C)co3)c(C)c2)C1` (stereo not drawn) [Example 39, 4-(tert-butyl)-N-(2-methyl-4-(3-(3-(N-methylacrylamido)piperidin-1-yl)pyridin-4-yl)benzyl)oxazole-2-carboxamide], the IC50 in experiment [1] was no more than 1 nM; in experiment [2] (Homo sapiens), 100 to 1000 nM.

With `C=CC(=O)N(C)C1CCCN(c2cnccc2-c2ccc(CNC(=O)c3ncn(C(C)(C)C)n3)c(C)c2)C1` (stereo not drawn) [Example 40, 1-(tert-butyl)-N-(2-methyl-4-(3-(3-(N-methylacrylamido)piperidin-1-yl)pyridin-4-yl)benzyl)-1H-1,2,4-triazole-3-carboxamide], the IC50 in experiment [1] is 1 to 10 nM; in experiment [2] (setting [3]) it was greater than 1000 nM.

For the molecule `C=CC(=O)N(C)C1CCCN(c2cnccc2-c2ccc(CNC(=O)c3ccc(C(F)(F)F)nc3)c(C)c2)C1` (stereo not drawn) [Example 41, N-(2-methyl-4-(3-(3-(N-methylacrylamido)piperidin-1-yl)pyridin-4-yl)benzyl)-6-(trifluoromethyl)nicotinamide], the IC50 in experiment [1] is 1 to 10 nM; in experiment [2] (setting [3]), greater than 1000 nM.

In the case of `C=CC(=O)N(C)C1CCCN(c2cnccc2-c2ccc(CNC(=O)c3cnn(C(C)(C)C)c3)c(C)c2)C1` (stereo not drawn) [Example 42, 1-(tert-butyl)-N-(2-methyl-4-(3-(3-(N-methylacrylamido)piperidin-1-yl)pyridin-4-yl)benzyl)-1H-pyrazole-4-carboxamide], the figures for the half-inhibitory concentration (IC50) in experiment [1] and in experiment [2] (setting [3]) were no more than 1 nM and 100 to 1000 nM, respectively.

For the molecule `C=CC(=O)N(C)C1CCCN(c2cnccc2-c2ccc(CNC(=O)c3cn(C(C)(C)C)cn3)c(C)c2)C1` (stereo not drawn) [Example 43, 1-(tert-butyl)-N-(2-methyl-4-(3-(3-(N-methylacrylamido)piperidin-1-yl)pyridin-4-yl)benzyl)-1H-imidazole-4-carboxamide], the values for the IC50 in experiment [1] and in experiment [2] (setting [3]) were 1 to 10 nM and greater than 1000 nM, respectively.

Consider `C=CC(=O)N(C)C1CCCN(c2cnccc2-c2ccc(CNC(=O)c3ccn(C(C)(C)C)n3)c(C)c2)C1` (stereo not drawn) [Example 44, 1-(tert-butyl)-N-(2-methyl-4-(3-(3-(N-methylacrylamido)piperidin-1-yl)pyridin-4-yl)benzyl)-1H-pyrazole-3-carboxamide], for which the concentration for half-maximal inhibition (IC50) in experiment [1] is 1 to 10 nM; in experiment [2] (setting [3]), greater than 1000 nM.

For the molecule `C=CC(=O)N(C)C1CCCN(c2cnccc2-c2ccc(CNC(=O)c3cc(C(C)(C)C)no3)c(C)c2)C1` (stereo not drawn) [Example 46, 3-(tert-butyl)-N-(2-methyl-4-(3-(3-(N-methylacrylamido)piperidin-1-yl)pyridin-4-yl)benzyl)isoxazole-5-carboxamide], the 50% inhibitory concentration (IC50) in experiment [1] was no more than 1 nM; in experiment [2] (setting [3]), 100 to 1000 nM.

As to `C=CC(=O)N1CCN(c2cnccc2-c2ccc(CNC(=O)c3cn(C(C)(C)C)nn3)c(C)c2)CC1` [Example 49, N-(4-(3-(4-acryloylpiperazin-1-yl)pyridin-4-yl)-2-methylbenzyl)-1-(tert-butyl)-1H-1,2,3-triazole-4-carboxamide], the IC50 is no more than 1 nM in experiment [1] and 100 to 1000 nM in experiment [2] (setting [3]).

`C=CC(=O)N(C)[C@@H]1CCCCN(c2cnccc2-c2ccc(CNC(=O)c3cn(C(C)(C)C)nn3)c(C)c2)C1` [Example 51, (R)-1-(tert-butyl)-N-(2-methyl-4-(3-(3-(N-methylacrylamido)azepan-1-yl)pyridin-4-yl)benzyl)-1H-1,2,3-triazole-4-carboxamide]: the IC50 in experiment [1] is no more than 1 nM; in experiment [2] (setting [3]), greater than 1000 nM.
